Results from ChEMBL document CHEMBL3994575, “Helixconstraints and amino acid substitution in GLP-1 increase cAMP and insulin secretion but not beta-arrestin 2 signaling” (Eur J Med Chem, 2017).
Positions of bridges follow the written chain, without caps; N, C: chain ends. Residues, ends and D or L forms follow the SMILES beside them.

Columns and labels:
[1] = target: T1, Glucagon-like peptide 1 receptor (Homo sapiens, UniProt P43220); assay: Agonist activity at human GLP1R expressed in CHO cells assessed as cAMP accumulation incubated for 30 mins by LANCE assay; format: functional, cell-based
T1 sequence (P43220 whole entry, the tested form may be a part): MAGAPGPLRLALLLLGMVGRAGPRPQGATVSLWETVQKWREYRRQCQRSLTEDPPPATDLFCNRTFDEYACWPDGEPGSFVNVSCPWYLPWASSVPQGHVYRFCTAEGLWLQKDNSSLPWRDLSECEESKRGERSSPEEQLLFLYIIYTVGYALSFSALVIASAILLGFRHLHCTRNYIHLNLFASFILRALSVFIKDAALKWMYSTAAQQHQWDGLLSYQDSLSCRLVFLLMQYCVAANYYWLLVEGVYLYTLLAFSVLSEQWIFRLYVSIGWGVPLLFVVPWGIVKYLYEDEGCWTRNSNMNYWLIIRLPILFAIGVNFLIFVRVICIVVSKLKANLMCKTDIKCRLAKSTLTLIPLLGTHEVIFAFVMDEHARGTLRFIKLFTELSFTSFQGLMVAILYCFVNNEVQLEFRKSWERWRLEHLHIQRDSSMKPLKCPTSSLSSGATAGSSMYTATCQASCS

[2] = target: T1, Glucagon-like peptide 1 receptor; assay: Displacement of [125I]-GLP (7 to 36 residues) from human GLP1R expressed in CHO cell membranes incubated for 30 mins measured after 10 hrs by scintillation proximity assay
[3] = target: T1, Glucagon-like peptide 1 receptor; assay: Agonist activity at human GLP1R expressed in CHOK1 cells assessed as induction of beta-galactosidase-tagged beta-arrestin2 recruitment incubated for 90 mins by PathHunter enzyme complementation assay; format: cell-based
[4] = target: T2, Glucagon-like peptide 1 receptor (Rattus norvegicus, UniProt P32301); assay: Agonist activity at GLP1R in rat INS-1 cells assessed as increase in glucose-stimulated insulin secretion after 1 hr by HTRF assay; format: cell-based
T2 sequence (P32301 whole entry): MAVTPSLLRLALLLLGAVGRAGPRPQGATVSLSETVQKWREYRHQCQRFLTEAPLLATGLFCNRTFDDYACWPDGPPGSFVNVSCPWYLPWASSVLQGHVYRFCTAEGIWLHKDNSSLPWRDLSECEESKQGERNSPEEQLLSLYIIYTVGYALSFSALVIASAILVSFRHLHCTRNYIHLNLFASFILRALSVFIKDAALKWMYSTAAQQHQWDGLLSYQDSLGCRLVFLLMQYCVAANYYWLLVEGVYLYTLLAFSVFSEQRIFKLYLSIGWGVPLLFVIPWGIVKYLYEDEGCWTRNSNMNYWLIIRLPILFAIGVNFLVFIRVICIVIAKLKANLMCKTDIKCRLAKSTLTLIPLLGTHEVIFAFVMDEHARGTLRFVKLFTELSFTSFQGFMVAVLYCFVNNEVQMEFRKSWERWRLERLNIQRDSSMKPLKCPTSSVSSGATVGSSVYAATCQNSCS

EC50 [1] | Ki [2] | EC50 [3] | EC50 [4] | SMILES
20 nM | > 50 nM | > 1000 nM | 130 nM | CC[C@H](C)[C@H](NC(=O)[C@H](Cc1ccccc1)NC(=O)[C@H](CCC(=O)O)NC(=O)[C@H](CCCCN)NC(=O)[C@H](C)NC(=O)[C@H](C)NC(=O)[C@H](CCC(N)=O)NC(=O)CNC(=O)[C@@H]1CCCN1C(=O)[C@H](CC(C)C)NC(=O)[C@H](Cc1ccc(O)cc1)NC(=O)[C@H](CO)NC(=O)[C@H](CO)NC(=O)[C@@H](NC(=O)[C@H](CC(=O)O)NC(=O)[C@H](CO)NC(=O)[C@@H](NC(=O)[C@H](Cc1ccccc1)NC(=O)[C@@H](NC(=O)CNC(=O)[C@H](CCC(=O)O)NC(=O)[C@H](C)NC(=O)[C@@H](N)Cc1cnc[nH]1)[C@@H](C)O)[C@@H](C)O)C(C)C)C(=O)N[C@H]1CCCCNC(=O)C[C@@H](C(=O)NCC(=O)N[C@@H](CCCNC(=N)N)C(=O)NCC(N)=O)NC(=O)[C@H](C(C)C)NC(=O)[C@H](CC(C)C)NC(=O)[C@H](Cc2c[nH]c3ccccc23)NC1=O (H-HAEGTFTSDVSSYLPGQAAKEFIKWLVDGRG-NH2; lactam 24-28)
0.004 nM | 1.4 nM | 11 nM | 0.25 nM | CC[C@H](C)[C@H](NC(=O)[C@H](Cc1ccccc1)NC(=O)[C@H](CCC(=O)O)NC(=O)[C@H](CCCCN)NC(=O)[C@H](C)NC(=O)[C@H](C)NC(=O)[C@H](CCC(N)=O)NC(=O)[C@H](C)NC(=O)[C@H](CCC(=O)O)NC(=O)[C@@H]1CC(=O)NCCCC[C@H](NC(=O)[C@H](CC(=O)O)NC(=O)[C@H](CO)NC(=O)[C@@H](NC(=O)[C@H](Cc2ccccc2)NC(=O)[C@@H](NC(=O)CNC(=O)[C@H](CCC(=O)O)NC(=O)[C@H](C)NC(=O)[C@@H](N)Cc2cnc[nH]2)[C@@H](C)O)[C@@H](C)O)C(=O)N[C@@H](CO)C(=O)N[C@@H](CO)C(=O)N[C@@H](Cc2ccc(O)cc2)C(=O)N1)C(=O)N[C@H]1CCCCNC(=O)C[C@@H](C(=O)NCC(=O)N[C@@H](CCCNC(=N)N)C(=O)NCC(N)=O)NC(=O)[C@H](C(C)C)NC(=O)[C@H](CC(C)C)NC(=O)[C@H](Cc2c[nH]c3ccccc23)NC1=O (H-HAEGTFTSDKSSYDEAQAAKEFIKWLVDGRG-NH2; lactam 10-14, 24-28)
